Structures can show the parent of a compound that is named as a salt.
What was measured:
[1] = biological target: ATP-binding cassette sub-family C member 3 (Homo sapiens, UniProt O15438); assay: Inhibition of human MRP3 overexpressed in Sf9 insect cell membrane vesicles assessed as uptake of [3H]-estradiol-17beta-D-glucuronide in presence of ATP and GSH measured after 10 mins by membrane vesicle transport assay; format: ADME, cell-based
[2] = biological target: T1, ATP-binding cassette sub-family C member 4 (Homo sapiens, UniProt O15439); assay: Inhibition of human MRP4 overexpressed in Sf9 cell membrane vesicles assessed as uptake of [3H]-estradiol-17beta-D-glucuronide in presence of ATP and GSH measured after 20 mins by membrane vesicle transport assay; format: ADME, cell-based
T1 sequence (O15439 whole entry): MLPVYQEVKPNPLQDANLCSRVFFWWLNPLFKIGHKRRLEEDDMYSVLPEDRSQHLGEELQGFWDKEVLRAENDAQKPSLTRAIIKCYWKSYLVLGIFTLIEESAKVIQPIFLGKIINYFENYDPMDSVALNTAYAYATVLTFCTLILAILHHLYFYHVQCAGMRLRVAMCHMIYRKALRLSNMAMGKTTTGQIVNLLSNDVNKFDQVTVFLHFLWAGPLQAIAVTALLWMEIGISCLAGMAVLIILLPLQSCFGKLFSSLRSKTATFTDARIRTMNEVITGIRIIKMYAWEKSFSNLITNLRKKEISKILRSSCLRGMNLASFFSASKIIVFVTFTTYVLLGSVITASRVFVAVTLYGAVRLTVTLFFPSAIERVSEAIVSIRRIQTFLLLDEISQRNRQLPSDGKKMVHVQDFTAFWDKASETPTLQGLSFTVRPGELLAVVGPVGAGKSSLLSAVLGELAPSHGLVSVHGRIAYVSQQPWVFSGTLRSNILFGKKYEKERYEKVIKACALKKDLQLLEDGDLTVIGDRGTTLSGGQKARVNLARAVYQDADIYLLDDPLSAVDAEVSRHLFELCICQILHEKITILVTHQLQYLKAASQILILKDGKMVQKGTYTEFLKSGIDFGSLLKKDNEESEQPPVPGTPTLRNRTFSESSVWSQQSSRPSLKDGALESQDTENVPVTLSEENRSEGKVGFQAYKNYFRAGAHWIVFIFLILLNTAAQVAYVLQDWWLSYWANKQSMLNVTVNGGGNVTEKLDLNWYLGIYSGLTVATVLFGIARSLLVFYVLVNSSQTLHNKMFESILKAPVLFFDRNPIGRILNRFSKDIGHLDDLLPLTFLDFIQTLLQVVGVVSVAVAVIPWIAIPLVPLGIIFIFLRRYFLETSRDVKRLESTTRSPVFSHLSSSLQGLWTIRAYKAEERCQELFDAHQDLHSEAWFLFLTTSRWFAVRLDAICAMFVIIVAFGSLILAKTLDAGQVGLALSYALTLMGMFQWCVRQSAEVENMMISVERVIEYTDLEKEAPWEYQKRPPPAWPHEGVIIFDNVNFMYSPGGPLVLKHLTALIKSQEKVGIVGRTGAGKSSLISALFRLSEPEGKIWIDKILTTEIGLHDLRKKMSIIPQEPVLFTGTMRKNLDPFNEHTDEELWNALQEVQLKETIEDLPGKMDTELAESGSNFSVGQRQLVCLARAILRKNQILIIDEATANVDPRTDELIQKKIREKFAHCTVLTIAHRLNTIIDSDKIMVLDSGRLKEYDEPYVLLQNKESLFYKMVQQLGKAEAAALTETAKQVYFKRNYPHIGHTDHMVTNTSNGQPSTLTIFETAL

[3] = biological target: ATP-binding cassette sub-family C member 2 (Homo sapiens, UniProt Q92887); assay: Inhibition of human MRP2 overexpressed in Sf9 cell membrane vesicles assessed as uptake of [3H]-estradiol-17beta-D-glucuronide in presence of ATP and GSH measured after 20 mins by membrane vesicle transport assay
Bile salt export pump = Bile salt export pump (Homo sapiens, UniProt O95342); assay: Inhibition of human BSEP overexpressed in Sf9 cell membrane vesicles assessed as uptake of [3H]-taurocholate in presence of ATP measured after 15 to 20 mins by membrane vesicle transport assay; format: ADME, cell-based
Sequence of Bile salt export pump (O95342 whole entry): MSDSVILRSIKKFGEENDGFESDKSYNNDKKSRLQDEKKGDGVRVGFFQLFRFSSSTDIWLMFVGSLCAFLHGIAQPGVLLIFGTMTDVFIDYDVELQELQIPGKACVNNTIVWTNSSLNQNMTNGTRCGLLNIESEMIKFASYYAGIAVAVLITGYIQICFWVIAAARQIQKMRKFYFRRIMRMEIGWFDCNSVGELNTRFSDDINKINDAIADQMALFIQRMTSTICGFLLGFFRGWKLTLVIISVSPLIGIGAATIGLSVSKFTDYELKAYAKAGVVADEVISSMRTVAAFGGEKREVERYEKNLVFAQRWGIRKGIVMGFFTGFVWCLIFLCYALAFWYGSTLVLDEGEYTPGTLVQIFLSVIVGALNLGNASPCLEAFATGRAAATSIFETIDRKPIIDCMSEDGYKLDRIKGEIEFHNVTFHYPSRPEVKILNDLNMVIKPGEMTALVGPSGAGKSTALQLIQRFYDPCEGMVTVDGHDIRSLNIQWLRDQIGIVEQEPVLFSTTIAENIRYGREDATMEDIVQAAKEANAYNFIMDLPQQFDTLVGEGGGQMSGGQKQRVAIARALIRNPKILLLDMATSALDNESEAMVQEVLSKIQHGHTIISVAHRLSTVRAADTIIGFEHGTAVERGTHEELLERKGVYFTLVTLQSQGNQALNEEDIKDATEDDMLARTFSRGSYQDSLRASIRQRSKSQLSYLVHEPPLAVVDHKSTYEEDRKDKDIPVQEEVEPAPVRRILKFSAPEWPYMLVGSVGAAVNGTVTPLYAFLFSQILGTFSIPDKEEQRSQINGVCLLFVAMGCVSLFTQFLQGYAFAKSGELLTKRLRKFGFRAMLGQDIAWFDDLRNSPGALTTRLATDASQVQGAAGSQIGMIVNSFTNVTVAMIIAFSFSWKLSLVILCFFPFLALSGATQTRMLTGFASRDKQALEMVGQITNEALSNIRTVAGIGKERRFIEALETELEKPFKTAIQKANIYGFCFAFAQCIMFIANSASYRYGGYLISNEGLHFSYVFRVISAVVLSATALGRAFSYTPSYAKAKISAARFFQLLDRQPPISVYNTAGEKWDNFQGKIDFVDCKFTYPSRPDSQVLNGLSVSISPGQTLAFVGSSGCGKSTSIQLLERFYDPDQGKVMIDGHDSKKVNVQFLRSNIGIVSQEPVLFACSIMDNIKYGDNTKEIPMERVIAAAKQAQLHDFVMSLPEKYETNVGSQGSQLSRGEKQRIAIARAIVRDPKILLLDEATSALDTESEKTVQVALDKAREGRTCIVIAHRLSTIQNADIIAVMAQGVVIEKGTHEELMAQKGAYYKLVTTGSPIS

Sequence of ATP-binding cassette sub-family C member 3 (O15438 whole entry): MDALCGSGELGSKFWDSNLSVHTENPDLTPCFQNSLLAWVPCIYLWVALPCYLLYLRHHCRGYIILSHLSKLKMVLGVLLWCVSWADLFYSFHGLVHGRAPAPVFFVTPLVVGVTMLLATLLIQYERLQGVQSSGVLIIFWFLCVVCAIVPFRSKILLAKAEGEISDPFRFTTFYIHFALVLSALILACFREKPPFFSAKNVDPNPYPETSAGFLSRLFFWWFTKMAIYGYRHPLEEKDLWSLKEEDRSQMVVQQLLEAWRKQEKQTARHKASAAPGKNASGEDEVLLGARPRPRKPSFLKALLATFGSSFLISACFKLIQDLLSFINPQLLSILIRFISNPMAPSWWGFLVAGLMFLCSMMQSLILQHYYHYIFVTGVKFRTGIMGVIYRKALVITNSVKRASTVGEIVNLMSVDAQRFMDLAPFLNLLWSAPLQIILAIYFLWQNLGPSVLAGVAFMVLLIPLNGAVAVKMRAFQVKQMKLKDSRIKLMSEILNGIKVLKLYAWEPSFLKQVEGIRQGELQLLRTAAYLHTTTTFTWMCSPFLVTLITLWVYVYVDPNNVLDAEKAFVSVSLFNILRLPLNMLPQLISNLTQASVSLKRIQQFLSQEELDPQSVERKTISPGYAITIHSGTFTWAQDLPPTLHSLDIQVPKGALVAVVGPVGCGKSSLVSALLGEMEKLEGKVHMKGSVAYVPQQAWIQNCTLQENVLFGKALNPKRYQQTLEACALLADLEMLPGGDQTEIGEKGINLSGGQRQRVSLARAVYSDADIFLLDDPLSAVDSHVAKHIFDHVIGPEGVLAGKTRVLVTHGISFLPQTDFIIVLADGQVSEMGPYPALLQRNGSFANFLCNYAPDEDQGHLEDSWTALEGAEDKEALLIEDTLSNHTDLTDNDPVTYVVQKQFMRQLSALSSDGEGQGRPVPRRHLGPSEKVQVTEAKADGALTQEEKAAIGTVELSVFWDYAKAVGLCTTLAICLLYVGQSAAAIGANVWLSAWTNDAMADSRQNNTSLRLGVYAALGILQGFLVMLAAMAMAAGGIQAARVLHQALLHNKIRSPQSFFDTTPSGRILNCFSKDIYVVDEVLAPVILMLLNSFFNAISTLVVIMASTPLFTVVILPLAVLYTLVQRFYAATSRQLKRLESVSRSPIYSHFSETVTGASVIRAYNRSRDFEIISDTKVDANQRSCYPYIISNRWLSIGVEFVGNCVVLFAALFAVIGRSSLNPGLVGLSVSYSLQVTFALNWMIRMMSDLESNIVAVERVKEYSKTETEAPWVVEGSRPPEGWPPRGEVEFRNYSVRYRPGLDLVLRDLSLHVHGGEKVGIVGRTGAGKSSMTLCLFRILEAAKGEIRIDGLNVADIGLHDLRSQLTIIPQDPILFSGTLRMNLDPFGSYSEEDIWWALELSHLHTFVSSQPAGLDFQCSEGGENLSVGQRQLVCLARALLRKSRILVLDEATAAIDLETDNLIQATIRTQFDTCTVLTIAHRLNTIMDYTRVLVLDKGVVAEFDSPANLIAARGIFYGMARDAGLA
Sequence of ATP-binding cassette sub-family C member 2 (Q92887 whole entry): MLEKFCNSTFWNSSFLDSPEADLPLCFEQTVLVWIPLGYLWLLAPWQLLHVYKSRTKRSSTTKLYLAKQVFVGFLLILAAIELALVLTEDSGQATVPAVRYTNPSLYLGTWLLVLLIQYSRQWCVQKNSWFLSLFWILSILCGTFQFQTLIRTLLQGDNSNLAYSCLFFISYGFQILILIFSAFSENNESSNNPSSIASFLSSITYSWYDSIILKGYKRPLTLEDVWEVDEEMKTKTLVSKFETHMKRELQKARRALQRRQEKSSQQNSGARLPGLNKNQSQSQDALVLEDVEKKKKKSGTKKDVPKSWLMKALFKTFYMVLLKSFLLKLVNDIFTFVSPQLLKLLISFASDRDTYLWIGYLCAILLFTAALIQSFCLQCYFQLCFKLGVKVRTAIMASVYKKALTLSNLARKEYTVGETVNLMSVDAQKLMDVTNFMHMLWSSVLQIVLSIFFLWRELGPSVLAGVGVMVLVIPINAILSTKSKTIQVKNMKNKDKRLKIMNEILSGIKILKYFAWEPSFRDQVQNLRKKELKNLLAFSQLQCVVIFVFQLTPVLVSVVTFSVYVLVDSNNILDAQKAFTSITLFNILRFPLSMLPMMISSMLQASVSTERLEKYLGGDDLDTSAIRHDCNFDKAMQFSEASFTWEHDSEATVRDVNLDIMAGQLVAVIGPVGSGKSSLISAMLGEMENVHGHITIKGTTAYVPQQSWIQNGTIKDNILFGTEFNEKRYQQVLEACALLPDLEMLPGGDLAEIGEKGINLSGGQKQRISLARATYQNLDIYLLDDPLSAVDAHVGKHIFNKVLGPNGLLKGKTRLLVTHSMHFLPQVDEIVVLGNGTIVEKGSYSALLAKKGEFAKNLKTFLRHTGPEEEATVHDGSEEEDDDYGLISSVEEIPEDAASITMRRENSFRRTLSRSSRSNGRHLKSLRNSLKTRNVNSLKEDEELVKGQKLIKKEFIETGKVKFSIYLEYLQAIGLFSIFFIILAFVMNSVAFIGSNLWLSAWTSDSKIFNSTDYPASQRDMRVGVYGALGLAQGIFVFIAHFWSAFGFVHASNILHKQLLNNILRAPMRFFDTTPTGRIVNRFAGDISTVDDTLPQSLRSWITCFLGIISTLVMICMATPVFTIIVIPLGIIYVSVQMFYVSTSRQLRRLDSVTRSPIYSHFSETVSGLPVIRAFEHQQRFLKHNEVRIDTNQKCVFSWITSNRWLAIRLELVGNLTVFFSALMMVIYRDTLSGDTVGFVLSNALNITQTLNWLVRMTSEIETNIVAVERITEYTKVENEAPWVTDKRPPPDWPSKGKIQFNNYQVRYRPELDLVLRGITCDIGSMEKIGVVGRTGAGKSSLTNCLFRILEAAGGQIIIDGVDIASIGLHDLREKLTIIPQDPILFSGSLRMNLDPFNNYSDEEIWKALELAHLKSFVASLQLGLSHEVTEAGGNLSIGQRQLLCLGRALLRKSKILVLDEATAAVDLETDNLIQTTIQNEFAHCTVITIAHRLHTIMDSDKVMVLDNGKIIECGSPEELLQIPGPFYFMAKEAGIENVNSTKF

| SMILES | IC50 [1] [µM] | IC50 [2] [µM] | IC50 [3] [µM] | IC50 (Bile salt export pump) [µM] |
| --- | --- | --- | --- | --- |
| NC(=O)CN1CCCC1=O | > 133 | > 133 | > 133 | > 133 |
| C=C1[C@H](CO)[C@@H](O)C[C@@H]1n1cnc2c(=O)[nH]c(N)nc21 | > 133 | > 133 | > 133 | > 133 |
| COc1ccc(-c2ccc3cc(C(=O)O)ccc3c2)cc1C12CC3CC(CC(C3)C1)C2 | > 133 | > 133 | > 133 | > 133 |
| Fc1ccc([C@@H]2CCNC[C@H]2COc2ccc3c(c2)OCO3)cc1 [PAROXETINE HYDROCHLORIDE] | > 133 | > 133 | > 133 | > 133 |
| O=C1CCc2cc(OCCCCc3nnnn3C3CCCCC3)ccc2N1 [CILOSTAZOL] | > 133 | 16.6 | > 133 | > 133 |
| CC(=O)Oc1ccccc1C(=O)Nc1ncc([N+](=O)[O-])s1 [NITAZOXANIDE] | > 133 | > 133 | > 133 | > 133 |
| CC[C@]1(O)C[C@@H]2CN(CCc3c([nH]c4ccccc34)[C@@](C(=O)OC)(c3cc4c(cc3OC)N(C)[C@H]3[C@@](O)(C(=O)OC)[C@H](OC(C)=O)[C@]5(CC)C=CCN6CC[C@]43[C@@H]65)C2)C1 [VINBLASTINE] | > 133 | 35.1 | > 133 | > 133 |
| CCN(CC)CCOc1ccc2c(c1)C(=O)c1cc(OCCN(CC)CC)ccc1-2 [TILORONE] | > 133 | > 133 | > 133 | > 133 |
| CCN(CC)CCNC(=O)c1ccc(NC(C)=O)cc1 [ACECAINIDE] | > 133 | > 133 | > 133 | > 133 |
| C[C@@H](O[C@H]1OCCN(Cc2n[nH]c(=O)[nH]2)[C@H]1c1ccc(F)cc1)c1cc(C(F)(F)F)cc(C(F)(F)F)c1 [APREPITANT] | > 133 | > 133 | > 133 | > 133 |
| COc1cc2nc(N3CCN(C(=O)C4CCCO4)CC3)nc(N)c2cc1OC (stereo not given) [TERAZOSIN] | > 133 | 36.8 | > 133 | > 133 |
| Cc1c(OCC(F)(F)F)ccnc1C[S@@+]([O-])c1nc2ccccc2[nH]1 [DEXLANSOPRAZOLE] | > 133 | > 133 | > 133 | > 133 |
| CCN1CCC[C@H]1CNC(=O)c1cc(S(N)(=O)=O)ccc1OC [LEVOSULPIRIDE] | > 133 | > 133 | > 133 | > 133 |
| CC(=O)OCC(=O)[C@@]1(O)[C@H](OC(C)=O)C[C@H]2[C@@H]3CCC4=CC(=O)C=C[C@]4(C)[C@@]3(F)[C@@H](O)C[C@@]21C [TRIAMCINOLONE DIACETATE] | > 133 | > 133 | > 133 | > 133 |
| CC(=O)N(CC(O)CO)c1c(I)c(C(=O)NCC(O)CO)c(I)c(C(=O)NCC(O)CO)c1I (stereo not given) [IOHEXOL] | > 133 | > 133 | > 133 | > 133 |
| CN(C)CCc1c[nH]c2ccc(Cn3cncn3)cc12 [RIZATRIPTAN BENZOATE] | > 133 | > 133 | > 133 | > 133 |
| C=CC1=C(C(=O)O)N2C(=O)[C@@H](NC(=O)/C(=N\OCC(=O)O)c3csc(N)n3)[C@H]2SC1 [CEFIXIME] | > 133 | > 133 | 89.4 | > 133 |
| CCN(CC)C(=O)c1cccnc1 [NIKETHAMIDE] | > 133 | > 133 | > 133 | > 133 |
| CNC1=Nc2ccc(Cl)cc2C(c2ccccc2)=[N+]([O-])C1 [CHLORDIAZEPOXIDE] | > 133 | > 133 | > 133 | 44.1 |
| N[C@@H](C(=O)N[C@@H]1C(=O)N2C(C(=O)O)=C(Cl)CS[C@H]12)c1ccccc1 [CEFACLOR ANHYDROUS] | > 133 | > 133 | > 133 | > 133 |
